According to US20080090834A1, “SELECTIVE AZOLE PDE10A INHIBITOR COMPOUNDS” (Pfizer Inc, priority 2006, published 2008):
Structures can show the parent of a compound that is named as a salt.

Target: T1, cloned rat PDE10A full-length enzyme (Rattus norvegicus, UniProt Q9QYJ6)
T1 construct: cloned rat PDE10A full-length enzyme grown in transfected Sf9 insect cells; made in house; host or cells: Sf9 insect cells
T1 sequence (Q9QYJ6 1-794): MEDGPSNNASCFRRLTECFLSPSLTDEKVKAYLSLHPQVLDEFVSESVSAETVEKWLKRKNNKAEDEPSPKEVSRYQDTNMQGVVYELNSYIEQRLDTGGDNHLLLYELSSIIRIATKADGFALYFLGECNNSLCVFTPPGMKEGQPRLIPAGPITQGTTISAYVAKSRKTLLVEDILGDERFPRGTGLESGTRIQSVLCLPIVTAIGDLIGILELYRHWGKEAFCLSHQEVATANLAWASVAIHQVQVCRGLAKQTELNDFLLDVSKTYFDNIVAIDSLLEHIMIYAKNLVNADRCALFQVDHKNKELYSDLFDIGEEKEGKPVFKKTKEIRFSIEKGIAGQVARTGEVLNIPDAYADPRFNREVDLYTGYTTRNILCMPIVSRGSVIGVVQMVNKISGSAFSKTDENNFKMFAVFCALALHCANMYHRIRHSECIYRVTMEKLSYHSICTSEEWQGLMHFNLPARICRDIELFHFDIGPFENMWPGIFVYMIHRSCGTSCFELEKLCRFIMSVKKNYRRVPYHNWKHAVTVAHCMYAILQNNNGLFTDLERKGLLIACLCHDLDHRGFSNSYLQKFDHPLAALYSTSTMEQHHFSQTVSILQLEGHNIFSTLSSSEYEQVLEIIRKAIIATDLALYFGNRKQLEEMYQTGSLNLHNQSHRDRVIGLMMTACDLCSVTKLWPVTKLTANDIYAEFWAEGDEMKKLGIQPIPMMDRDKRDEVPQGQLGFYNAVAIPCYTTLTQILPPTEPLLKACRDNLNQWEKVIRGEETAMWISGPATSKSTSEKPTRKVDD
Assay: PDE10 enzyme inhibition, [3H]cAMP scintillation proximity assay
Format: biochemical
Details: rat PDE10A from Sf9 cells, 20 nM [3H]cAMP, SPA beads, 20 minute incubation at room temperature
Procedure: Compounds of the present invention were evaluated for ability to inhibit PDE10 enzyme with the following Assay procedure
The enzyme used in the procedure was cloned rat PDE10A full-length enzyme grown in transfected Sf9 insect cells. Cloned enzyme was extracted from homogenized cell pellets and stored frozen in homogenizing buffer until use. Compounds were initially dissolved in 100% DMSO and diluted out in 20 percent DMSO/water solution. Final concentration of DMSO in the assay was 2 percent as compounds were tested in triplicate in 96 well plates. Compound solution was placed in well, then tritiated cyclic AMP (New England Nuclear NET275) in assay buffer was added at 20 nM concentration. Then PDE10 enzyme in assay buffer of 50 mM Tris, 8.3 mM MgCl2, pH 7.5 at room temperature was added for a final assay volume of 100 ul. Concentration of enzyme was added such that less than 10 percent of [3H]cAMP at 20 nM was converted to detectable end product, [3H]AMP bound to SPA (Scintillation Proximity Assay) beads. Phosphodiesterase scintillation proximity yttrium silicate beads from Amersham Biosciences (RPNQ0150) were added (50 ul at 20 mg/ml) after a 20 minute incubation at room temperature. Zinc sulphate as a component of the beads stops the phosphodiesterase reaction.
Non-specific binding to SPA beads was determined by addition of 1 uM papaverine. Total conversion by enzyme without inhibitor of [3H]cAMP to [3H]AMP, as detected by scintillation of [3H]AMP bound to yttrium silicate beads, was determined in the presence of vehicle-only.

Row | Compound | IC50 [nM]
1 | Clc1ccc(-c2ccc(-c3nc(-c4ccccn4)cn3-c3cncnc3)cc2)cc1 [Example 71, 5-(2-(4-(4-chlorophenyl)phenyl)-4-(pyridin-2-yl)-1H-imidazol-1-yl)pyrimidine] | 67.6
2 | Cc1ccc(-n2cc(-c3ccccn3)nc2-c2ccc(-n3c(C)nc4cccnc43)cc2)cn1 [Example 57, 2-methyl-3-(4-(1-(6-methylpyridin-3-yl)-4-(pyridin-2-yl)-1H-imidazol-2-yl)phenyl)-3H-imidazo[4,5-b]pyridine] | 1.89
3 | Cc1cnc2c(ccn2-c2ccc(-c3nc(-c4ccccn4)cn3-c3ccc(C)nc3)cc2)c1 [Example 22, 5-methyl-1-(4-(1-[6-methylpyridin-3-yl)-4-(pyridin-2-yl)-1H-imidazol-2-yl)phenyl)-1H-pyrrolo[2,3-b]pyridine] | 12.1
4 | Cc1ccc(-n2cc(-c3ccccn3)nc2-c2ccc(-n3cc(C)c4nccnc43)cc2)cn1 [Example 75] | 2.41
5 | Cc1ccc(-n2cc(-c3ccccn3)nc2-c2ccc(-n3cnc4cncnc43)cc2)cn1 [Example 55, 9-(4-(1-(6-methylpyridin-3-yl)-4-(pyridin-2-yl)-1H-imidazol-2-yl)phenyl-9H-purine and 7-(4-(1-(6-methylpyridin-3-yl)-4-pyridin-2-yl)-1H-imidazol-2-yl))phenyl)-7H-purine] | 10.2
6 | COc1ccc(-c2[nH]c(-c3cccs3)nc2-c2ccc(-n3cnc(-c4ccccc4)c3)cc2)cc1 [Example 108] | 602
7 | CCOc1nc2cccnc2n1-c1ccc(-c2nc(-c3cscn3)cn2-c2ccc(C)nc2)cc1 [Example 100, 2-ethoxy-3-(4-(1-(6-methylpyridin-3-yl)-4-(thiazol-4-yl)-1H-imidazol-2-yl)phenyl)-3H-imidazo[4,5-b]pyridine] | 1.31
8 | FC(F)(F)c1ccc(-n2cc(-c3nccs3)nc2-c2ccc(-n3ccc4cccnc43)cc2)cn1 [Example 32, 1-(4-(1-(6-(trifluoromethyl)pyridin-3-yl)-4-(thiazol-2-yl)-1H-imidazol-2-yl)phenyl)-1H-pyrrolo[2,3-b]pyridine] | 2.13
9 | Cc1cc(-c2nc(-c3cccs3)[nH]c2-c2cnccn2)ccc1-n1ccc2cccnc21 [Example 113] | 47.4
10 | CNCCc1ccc(-n2cc(-c3nccs3)nc2-c2ccc(-n3ccc4cccnc43)cc2)cc1 [Example 31] | 6.63
11 | Cc1ccc(-n2cc(-c3ccccn3)nc2-c2ccc(-n3ccc4cc(Cl)cnc43)cc2)cn1 [Example 20, 5-chloro-1-(4-(4-pyridin-2-yl)-1-(6-methylpyridin-3-yl-1H-imidazol-2-yl)phenyl)-1H-pyrrolo[2,3-b]pyridine] | < 2.72
12 | Cc1cc(-n2cc(-c3nccn3C)nc2-c2ccc(-n3ccc4cccnc43)cc2)ccn1 [Example 66, 1-(4-(4-(1-methyl-1H-imidazol-2-yl)-1-(2-methylpyridin-4-yl)-1H-imidazol-2-yl)phenyl)-1H-pyrrolo[2,3-b]pyridine] | 112
13 | COc1ccc(-c2[nH]c(-c3cccs3)nc2-c2ccc(-n3ccc4cccnc43)cc2)cc1 [Example 103] | 2.82
14 | Cc1cc(-c2nc(-c3cccs3)n(O)c2-c2cnccn2)ccc1-n1ccc2cccnc21 [Example 109, 1-(4-(1-hydroxy-5-(pyrazin-2-yl))-2-(thiophen-2-yl)-1H-imidazol-4-yl)-2-methylphenyl-1H-pyrrolo[2,3-b]pyridine] | 18.4
15 | COc1nc2cccnc2n1-c1ccc(-c2nc(-c3cccs3)cn2-c2ccc(C)nc2)cc1 [Example 93, 2-methoxy-3-(4-(1-(6-methylpyridin-3-yl)-4-(thiophen-2-yl)-1H-imidazol-2-yl)phenyl)-3H-imidazo[4,5-b]pyridine] | < 0.424

Second part, the compound after the results:

Row | IC50 [nM] | Compound
16 | 42.9 | c1ccc(-n2cc(-c3cccnc3)c(-c3ccc(-n4ccc5cccnc54)cc3)n2)nc1 [Example 120, 1-(4-(1-(pyridin-2-yl)-4-(pyridin-3-yl)-1H-pyrazol-3-yl)phenyl)-1H-pyrrolo[2,3-b]pyridine]
17 | 12.3 | Cc1ccc(-n2cc(-c3cccc[n+]3[O-])nc2-c2ccc(-n3ccc4cccnc43)cc2)cn1 [Example 16, 1-(4-(1-(6-methylpyridin-3-yl)-4-(1-oxido-pyridin-2-yl)-1H-imidazol-2-yl)phenyl)-1H-pyrrolo[2,3-b]pyridine]
18 | 3.07 | COc1ccc(-n2cc(-c3ccccn3)nc2-c2ccc(-n3ccc4cccnc43)cc2)cn1 [Example 9, 1-(4-(1-(6-methoxypyridin-3-yl)-4-(pyridin-2-yl)-1H-imidazol-2-yl)phenyl)-1H-pyrrolo[2,3-b]pyridine]
19 | 4.46 | c1cnc2c(c1)ccn2-c1ccc(-c2nc(-c3nccs3)cn2-c2ccncc2)cc1 [Example 25, 1-(4-(1-(pyridin-4-yl)-4-(thiazol-2-yl)-1H-imidazol-2-yl)phenyl)-1H-pyrrolo[2,3-b]pyridine]
20 | 0.383 | COc1ccc(-n2cc(-c3nccs3)nc2-c2ccc(-n3ccc4cccnc43)cc2)cn1 [Example 29, 1-(4-(1-(6-methoxypyridin-3-yl)-4-(thiazol-2-yl)-1H-imidazol-2-yl)phenyl)-1H-pyrrolo[2,3-b]pyridine]
21 | < 2.45 | On1c(-c2cccs2)nc(-c2ccc(-n3ccc4cccnc43)cc2)c1-c1cnccn1 [Example 104, 1-(4-(1-hydroxy-5-(pyrazin-2-yl)-2-(thiophen-2-yl)-1H-imidazol-4-yl)phenyl)-1H-pyrrolo[2,3-b]pyridine]
22 | 18.6 | c1ccc(-c2nc(-c3cccnc3)c(-c3ccc(-n4ccc5cccnc54)cc3)[nH]2)nc1 [Example 114, 1-(4-(2-(pyridin-2-yl)-4-(pyridin-3-yl)-1H-imidazol-5-yl)phenyl)-1H-pyrrolo[2,3-b]pyridine]
23 | 9.32 | Cc1ccc(-n2cc(-c3ccccn3)nc2-c2ccc(-n3ccc4ncccc43)cc2)cn1 [Example 52, 1-(4-(1-(6-methylpyridin-3-yl)-4-(pyridin-2-yl)-1H-imidazol-2-yl)phenyl)-1H-pyrrolo[3,2-b]pyridine]
24 | 9.21 | c1csc(-c2nc(-c3ccc(-n4ccc5cccnc54)cc3)c(-c3cnccn3)[nH]2)c1 [Example 105]
25 | 21.1 | c1ccc(-c2cc(-c3cccnc3)nn2-c2ccc(-n3ccc4cccnc43)cc2)nc1 [Example 122, 1-(4-(5-(pyridin-2-yl)-3-(pyridin-3-yl)-1H-pyrazol-1-yl)phenyl)-1H-pyrrolo[2,3-b]pyridine TFA salt]
26 | 4.4 | c1cnc2c(c1)ccn2-c1ccc(-c2nc(-c3nccs3)cn2-c2cncnc2)cc1 [Example 26, 1-(4-(1-(pyrimidin-5-yl)-4-(thiazol-2-yl)-1H-imidazol-2-yl)phenyl)-1H-pyrrolo[2,3-b]pyridine]
27 | 97.8 | c1ccc(-c2cn(-c3cccnc3)c(-c3ccc(-n4cnc5ccccc54)cc3)n2)nc1 [Example 45, 1-(4-(4-(pyridin-2-yl)-1-(pyridin-3-yl)-1H-imidazol-2-yl)phenyl)-1H-benzo[d]imidazole]
28 | 113 | Clc1cccc2c1ccn2-c1ccc(-c2nc(-c3ccccn3)cn2-c2cccnc2)cc1 [Example 39, 4-chloro-1-(4-(4-(pyridin-2-yl)-1-(pyridin-3-yl)-1H-imidazol-2-y TFA salt]
29 | 65.1 | Clc1ccc(-c2cn(-c3cncnc3)c(-c3ccc(-n4ccc5cccnc54)cc3)n2)s1 [Example 62, 1-(4-(4-(5-chlorothiophen-2-yl)-1-(pyrimidin-5-yl)-1H-imidazol-2-yl)phenyl)-1H-pyrrolo[2,3-b]pyridine]
30 | 13.6 | c1ccc(-c2cn(-c3cncnc3)c(-c3ccc(-n4ccc5cccnc54)cc3)n2)nc1 [Example 4]
31 | 5.1 | Cc1cc(-n2cc(-c3cccnc3)nc2-c2ccc(-n3ccc4cccnc43)cc2)ccn1 [Example 68, 1-(4-(1-(2-methylpyridin-4-yl)-4-(pyridin-3-yl)-1H-imidazol-2-yl)phenyl)-1H-pyrrolo[2,3-b]pyridine bis-TFA salt]
